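All cell lines were grown in 96-well plates and treated with compound for 48 hours. TGI is the concentration that stops growth completely.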
Key:
Assay in all cases: inhibition of tumour cell growth, NCI panel, 48 h
[1] = system: IGROV1 ovarian
[2] = system: HOP-92 NSCLC
[3] = system: SF-539 CNS
[4] = system: SK-MEL-5 melanoma
[5] = system: SN12C renal
[6] = system: UACC-62 melanoma
[7] = system: CAKI-1 renal
[8] = system: UO-31 renal
[9] = system: HT29 colon
[10] = system: SW-620 colon
[11] = system: PC-3 prostate
[12] = system: NCI-H460 lung
[13] = system: BT-549 breast
[14] = system: HOP-62 NSCLC
[15] = system: UACC-257 melanoma
[16] = system: SNB-19 CNS
[17] = system: A498 renal
[18] = system: MCF7 breast
[19] = system: NCI-H522 lung
[20] = system: K-562 leukemia
[21] = system: HCT-15 colon
[22] = system: ACHN renal
[23] = system: MOLT-4 leukemia
[24] = system: HCT-116 colon
[25] = system: NCI/ADR-RES ovarian
[26] = system: MDA-MB-435
[27] = system: SF-268 CNS
[28] = system: 786-0 renal
[29] = system: KM12 colon
[30] = system: OVCAR-3 ovarian
[31] = system: SR leukemia
[32] = system: CCRF-CEM leukemia
[33] = system: NCI-H23 lung
[34] = system: HL-60(TB) leukemia
[35] = system: TK-10 renal
[36] = system: SK-MEL-2 melanoma
[37] = system: MDA-N
[38] = system: MALME-3M melanoma
[39] = system: SF-295 CNS
[40] = system: HCC-2998 colon
[41] = system: HS 578T breast
[42] = system: SK-MEL-28 melanoma
[43] = system: MDA-MB-231 breast
[44] = system: RPMI-8226 leukemia
[45] = system: DU-145 prostate
[46] = system: COLO 205 colon
[47] = system: LOX IMVI melanoma
[48] = system: OVCAR-4 ovarian
[49] = system: OVCAR-5 ovarian
[50] = system: RXF 393 renal
[51] = system: EKVX NSCLC
[52] = system: SK-OV-3 ovarian
[53] = system: U251 CNS
[54] = system: A549 NSCLC
[55] = system: OVCAR-8 ovarian
[56] = system: NCI-H226 lung
[57] = system: SNB-75 CNS
[58] = system: T-47D breast
[59] = system: M14 melanoma

N#CSC#Cc1ccc(C#CSC#N)cc1
TGI [1]: 30.5 µM
TGI [2]: 26 µM
TGI [3]: 43.3 µM
TGI [4]: 33.2 µM
TGI [5]: 34.6 µM
TGI [6]: 32.5 µM
TGI [7]: 31.6 µM
TGI [8]: 33.6 µM
TGI [9]: 42.1 µM
TGI [10]: 44.1 µM
TGI [11]: 29.5 µM
TGI [12]: 38.9 µM
TGI [13]: 32.4 µM
TGI [14]: 39.3 µM
TGI [15]: 33.8 µM
TGI [16]: 47.7 µM
TGI [17]: 36.8 µM
TGI [18]: 38.6 µM
TGI [19]: 29 µM
TGI [20]: > 100 µM
TGI [21]: 38 µM
TGI [22]: 30.1 µM
TGI [23]: > 100 µM
TGI [24]: 38.7 µM
TGI [25]: 42.5 µM
TGI [26]: 45.4 µM
TGI [27]: 51.7 µM
TGI [28]: 33.5 µM
TGI [29]: 36.8 µM
TGI [30]: 39.7 µM
TGI [31]: > 100 µM
TGI [32]: > 100 µM
TGI [33]: 35.5 µM
TGI [34]: > 100 µM
TGI [35]: 31.3 µM
TGI [36]: 38.8 µM
TGI [37]: 34.5 µM
TGI [38]: 51.9 µM
TGI [39]: 43.4 µM
TGI [40]: 34.3 µM
TGI [41]: 48.8 µM
TGI [42]: 57.2 µM
TGI [43]: 35.2 µM
TGI [44]: > 100 µM
TGI [45]: 28.3 µM
TGI [46]: 34.6 µM
TGI [47]: 34.5 µM
TGI [48]: 36 µM
TGI [49]: 34.9 µM
TGI [50]: 35.7 µM
TGI [51]: 37.2 µM
TGI [52]: 43 µM
TGI [53]: 41.8 µM
TGI [54]: 33.7 µM
TGI [55]: 42.6 µM
TGI [56]: 53.6 µM

CCC1(CC)SCc2nc3ccccc3n21
TGI [57]: 51.8 µM
TGI [1]: > 100 µM
TGI [2]: 61.2 µM
TGI [3]: > 100 µM
TGI [4]: 36.5 µM
TGI [5]: > 100 µM
TGI [6]: > 100 µM
TGI [58]: > 100 µM
TGI [7]: 95.7 µM
TGI [8]: > 100 µM
TGI [9]: > 100 µM
TGI [10]: > 100 µM
TGI [11]: 81.1 µM
TGI [12]: > 100 µM
TGI [14]: > 100 µM
TGI [15]: 71.9 µM
TGI [16]: > 100 µM
TGI [17]: > 100 µM
TGI [18]: 93.7 µM
TGI [19]: 94.4 µM
TGI [20]: 74.5 µM
TGI [21]: > 100 µM
TGI [22]: > 100 µM
TGI [23]: 84.3 µM
TGI [24]: 73.4 µM
TGI [25]: 86 µM
TGI [26]: 68 µM
TGI [27]: > 100 µM
TGI [28]: > 100 µM
TGI [29]: 61.5 µM
TGI [30]: > 100 µM
TGI [32]: > 100 µM
TGI [33]: > 100 µM
TGI [34]: 59.5 µM
TGI [35]: > 100 µM
TGI [36]: 85.3 µM
TGI [37]: > 100 µM
TGI [38]: 94.8 µM
TGI [39]: > 100 µM
TGI [40]: > 100 µM
TGI [41]: 82.9 µM
TGI [59]: 70.5 µM
TGI [42]: > 100 µM
TGI [43]: 90.5 µM
TGI [44]: 65.7 µM
TGI [45]: > 100 µM
TGI [46]: 40.2 µM
TGI [47]: > 100 µM
TGI [48]: > 100 µM
TGI [49]: > 100 µM
TGI [50]: 94.5 µM
TGI [51]: 73.7 µM
TGI [52]: > 100 µM
TGI [53]: > 100 µM
TGI [54]: > 100 µM
TGI [55]: > 100 µM
TGI [56]: 88.8 µM

Cc1cc2nc3c(C#N)c(-c4ccccc4)cc(Nc4ccc(Cl)cc4)n3c2cc1C
TGI [57]: > 100 µM
TGI [3]: > 100 µM
TGI [4]: > 100 µM
TGI [5]: > 100 µM
TGI [58]: > 100 µM
TGI [7]: > 100 µM
TGI [8]: > 100 µM
TGI [10]: > 100 µM
TGI [11]: > 100 µM
TGI [12]: > 100 µM
TGI [13]: > 100 µM
TGI [14]: > 100 µM
TGI [15]: > 100 µM
TGI [16]: > 100 µM
TGI [17]: > 100 µM
TGI [18]: > 100 µM
TGI [19]: > 100 µM
TGI [21]: > 100 µM
TGI [22]: > 100 µM
TGI [24]: > 100 µM
TGI [25]: > 100 µM
TGI [26]: > 100 µM
TGI [27]: > 100 µM
TGI [28]: > 100 µM
TGI [29]: > 100 µM
TGI [30]: > 100 µM
TGI [32]: > 100 µM
TGI [33]: > 100 µM
TGI [35]: > 100 µM
TGI [36]: > 100 µM
TGI [37]: > 100 µM
TGI [38]: > 100 µM
TGI [39]: > 100 µM
TGI [40]: > 100 µM
TGI [59]: > 100 µM
TGI [42]: > 100 µM
TGI [43]: > 100 µM
TGI [44]: > 100 µM
TGI [46]: > 100 µM
TGI [47]: > 100 µM
TGI [48]: > 100 µM
TGI [49]: > 100 µM
TGI [50]: > 100 µM
TGI [51]: > 100 µM
TGI [52]: > 100 µM
TGI [53]: > 100 µM
TGI [54]: > 100 µM
TGI [55]: > 100 µM
TGI [56]: > 100 µM

From PubChem BioAssay (NCI)
